Key:
Hela cell line = assay: Cytotoxicity MTS assay, Hela cell line; type: cell-based; settings: for OD490 Mean / OD490 Well 1 / OD490 Well 2 / OD490 Well 3: Hela cell line; for IC50: MTS assay, 24 h exposure;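 as to OD490 Mean: blank control DMSO at 0.025% final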;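 as to OD490 Well 1: blank control DMSO at 0.025% final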;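 as to OD490 Well 2: blank control DMSO at 0.025% final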;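 as to OD490 Well 3: blank control DMSO at 0.025% final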
Outline: (§1)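 Growth inhibition is measured by MTS conversion, read as absorbance at 490 nm after 2 h at 37 °C. Compounds act on cells seeded at 1000/well for 24 h across 0.5–100 µM final. Data derive from three independent duplicate experiments.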

Caco-2 cell line = assay: Cytotoxicity MTS assay, Caco-2 cell line; type: cell-based; settings: for OD490 Mean / OD490 Well 1 / OD490 Well 2 / OD490 Well 3: Caco-2 cell line
Outline: as §1

CCOC(=O)C1=C(C)NC(=S)NC1c1cccc(O)c1 (stereo not drawn) [Monastrol, monastrol, reference compound]
OD490 Mean (Hela cell line; 0.5μM, first assay): 2.4571 | OD490 Well 1 (Hela cell line; 0.5μM, first assay): 2.3556 | OD490 Well 2 (Hela cell line; 0.5μM, first assay): 2.5698 | OD490 Well 3 (Hela cell line; 0.5μM, first assay): 2.4458 | OD490 Mean (Hela cell line; 0.5μM, second assay): 2.6032 | OD490 Well 1 (Hela cell line; 0.5μM, second assay): 2.5874 | OD490 Well 2 (Hela cell line; 0.5μM, second assay): 2.6523 | OD490 Well 3 (Hela cell line; 0.5μM, second assay): 2.5698 | OD490 Mean (Hela cell line; 0.5μM, third assay): 2.6247 | OD490 Well 1 (Hela cell line; 0.5μM, third assay): 2.6417 | OD490 Well 2 (Hela cell line; 0.5μM, third assay): 2.5470 | OD490 Well 3 (Hela cell line; 0.5μM, third assay): 2.6854 | OD490 Mean (Hela cell line; 1μM, first assay): 2.1630 | OD490 Well 1 (Hela cell line; 1μM, first assay): 2.3365 | OD490 Well 2 (Hela cell line; 1μM, first assay): 2.0131 | OD490 Well 3 (Hela cell line; 1μM, first assay): 2.1393 | OD490 Mean (Hela cell line; 1μM, second assay): 2.5460 | OD490 Well 1 (Hela cell line; 1μM, second assay): 2.5687 | OD490 Well 2 (Hela cell line; 1μM, second assay): 2.5478 | OD490 Well 3 (Hela cell line; 1μM, second assay): 2.5214 | OD490 Mean (Hela cell line; 1μM, third assay): 2.5064 | OD490 Well 1 (Hela cell line; 1μM, third assay): 2.5748 | OD490 Well 2 (Hela cell line; 1μM, third assay): 2.5214 | OD490 Well 3 (Hela cell line; 1μM, third assay): 2.4230 | OD490 Mean (Hela cell line; 10μM, first assay): 2.2162 | OD490 Well 1 (Hela cell line; 10μM, first assay): 2.1607 | OD490 Well 2 (Hela cell line; 10μM, first assay): 2.2561 | OD490 Well 3 (Hela cell line; 10μM, first assay): 2.2317 | OD490 Mean (Hela cell line; 10μM, second assay): 2.5812 | OD490 Well 1 (Hela cell line; 10μM, second assay): 2.6541 | OD490 Well 2 (Hela cell line; 10μM, second assay): 2.5541 | OD490 Well 3 (Hela cell line; 10μM, second assay): 2.5354 | OD490 Mean (Hela cell line; 10μM, third assay): 2.5198 | OD490 Well 1 (Hela cell line; 10μM, third assay): 2.6510 | OD490 Well 2 (Hela cell line; 10μM, third assay): 2.2561 | OD490 Well 3 (Hela cell line; 10μM, third assay): 2.6524 | OD490 Mean (Hela cell line; 25μM, first assay): 2.2546 | OD490 Well 1 (Hela cell line; 25μM, first assay): 2.1835 | OD490 Well 2 (Hela cell line; 25μM, first assay): 2.2875 | OD490 Well 3 (Hela cell line; 25μM, first assay): 2.2928 | OD490 Mean (Hela cell line; 25μM, second assay): 2.5253 | OD490 Well 1 (Hela cell line; 25μM, second assay): 2.6854 | OD490 Well 2 (Hela cell line; 25μM, second assay): 2.3365 | OD490 Well 3 (Hela cell line; 25μM, second assay): 2.5541 | OD490 Mean (Hela cell line; 25μM, third assay): 2.5000 | OD490 Well 1 (Hela cell line; 25μM, third assay): 2.5874 | OD490 Well 2 (Hela cell line; 25μM, third assay): 2.2584 | OD490 Well 3 (Hela cell line; 25μM, third assay): 2.6541 | OD490 Mean (Hela cell line; 50μM, first assay): 2.5586 | OD490 Well 1 (Hela cell line; 50μM, first assay): 2.7188 | OD490 Well 2 (Hela cell line; 50μM, first assay): 2.4306 | OD490 Well 3 (Hela cell line; 50μM, first assay): 2.5263 | OD490 Mean (Hela cell line; 50μM, second assay): 2.4511 | OD490 Well 1 (Hela cell line; 50μM, second assay): 2.3541 | OD490 Well 2 (Hela cell line; 50μM, second assay): 2.5478 | OD490 Well 3 (Hela cell line; 50μM, second assay): 2.4514 | OD490 Mean (Hela cell line; 50μM, third assay): 2.6173 | OD490 Well 1 (Hela cell line; 50μM, third assay): 2.5412 | OD490 Well 2 (Hela cell line; 50μM, third assay): 2.6521 | OD490 Well 3 (Hela cell line; 50μM, third assay): 2.6587 | OD490 Mean (Hela cell line; 100μM, first assay): 2.2182 | OD490 Well 1 (Hela cell line; 100μM, first assay): 2.3464 | OD490 Well 2 (Hela cell line; 100μM, first assay): 2.1470 | OD490 Well 3 (Hela cell line; 100μM, first assay): 2.1612 | OD490 Mean (Hela cell line; 100μM, second assay): 2.5306 | OD490 Well 1 (Hela cell line; 100μM, second assay): 2.4236 | OD490 Well 2 (Hela cell line; 100μM, second assay): 2.6540 | OD490 Well 3 (Hela cell line; 100μM, second assay): 2.5142 | OD490 Mean (Hela cell line; 100μM, third assay): 2.4597 | OD490 Well 1 (Hela cell line; 100μM, third assay): 2.3654 | OD490 Well 2 (Hela cell line; 100μM, third assay): 2.5784 | OD490 Well 3 (Hela cell line; 100μM, third assay): 2.4352 | IC50 (Hela cell line; Homo sapiens, HeLa, 24 h): > 150 µM | IC50 (Hela cell line): > 150 µM | OD490 Mean (Caco-2 cell line; 0.5μM, first assay): 0.6317 | OD490 Well 1 (Caco-2 cell line; 0.5μM, first assay): 0.6883 | OD490 Well 2 (Caco-2 cell line; 0.5μM, first assay): 0.6260 | OD490 Well 3 (Caco-2 cell line; 0.5μM, first assay): 0.5808 | OD490 Mean (Caco-2 cell line; 0.5μM, second assay): 0.6461 | OD490 Well 1 (Caco-2 cell line; 0.5μM, second assay): 0.6307 | OD490 Well 2 (Caco-2 cell line; 0.5μM, second assay): 0.6567 | OD490 Well 3 (Caco-2 cell line; 0.5μM, second assay): 0.6508 | OD490 Mean (Caco-2 cell line; 0.5μM, third assay): 0.6299 | OD490 Well 1 (Caco-2 cell line; 0.5μM, third assay): 0.6325 | OD490 Well 2 (Caco-2 cell line; 0.5μM, third assay): 0.6000 | OD490 Well 3 (Caco-2 cell line; 0.5μM, third assay): 0.6531 | OD490 Mean (Caco-2 cell line; 1μM, first assay): 0.6316 | OD490 Well 1 (Caco-2 cell line; 1μM, first assay): 0.6697 | OD490 Well 2 (Caco-2 cell line; 1μM, first assay): 0.6037 | OD490 Well 3 (Caco-2 cell line; 1μM, first assay): 0.6213 | OD490 Mean (Caco-2 cell line; 1μM, second assay): 0.6874 | OD490 Well 1 (Caco-2 cell line; 1μM, second assay): 0.6746 | OD490 Well 2 (Caco-2 cell line; 1μM, second assay): 0.7532 | OD490 Well 3 (Caco-2 cell line; 1μM, second assay): 0.6345 | OD490 Mean (Caco-2 cell line; 1μM, third assay): 0.6466 | OD490 Well 1 (Caco-2 cell line; 1μM, third assay): 0.6332 | OD490 Well 2 (Caco-2 cell line; 1μM, third assay): 0.6854 | OD490 Well 3 (Caco-2 cell line; 1μM, third assay): 0.6211 | OD490 Mean (Caco-2 cell line; 10μM, first assay): 0.6065 | OD490 Well 1 (Caco-2 cell line; 10μM, first assay): 0.6414 | OD490 Well 2 (Caco-2 cell line; 10μM, first assay): 0.6303 | OD490 Well 3 (Caco-2 cell line; 10μM, first assay): 0.5477 | OD490 Mean (Caco-2 cell line; 10μM, second assay): 0.6609 | OD490 Well 1 (Caco-2 cell line; 10μM, second assay): 0.6953 | OD490 Well 2 (Caco-2 cell line; 10μM, second assay): 0.6962 | OD490 Well 3 (Caco-2 cell line; 10μM, second assay): 0.5912 | OD490 Mean (Caco-2 cell line; 10μM, third assay): 0.5909 | OD490 Well 1 (Caco-2 cell line; 10μM, third assay): 0.6012 | OD490 Well 2 (Caco-2 cell line; 10μM, third assay): 0.6583 | OD490 Well 3 (Caco-2 cell line; 10μM, third assay): 0.5132 | OD490 Mean (Caco-2 cell line; 25μM, first assay): 0.5366 | OD490 Well 1 (Caco-2 cell line; 25μM, first assay): 0.5485 | OD490 Well 2 (Caco-2 cell line; 25μM, first assay): 0.5284 | OD490 Well 3 (Caco-2 cell line; 25μM, first assay): 0.5329 | OD490 Mean (Caco-2 cell line; 25μM, second assay): 0.5966 | OD490 Well 1 (Caco-2 cell line; 25μM, second assay): 0.5969 | OD490 Well 2 (Caco-2 cell line; 25μM, second assay): 0.6213 | OD490 Well 3 (Caco-2 cell line; 25μM, second assay): 0.5715 | OD490 Mean (Caco-2 cell line; 25μM, third assay): 0.5678 | OD490 Well 1 (Caco-2 cell line; 25μM, third assay): 0.5784 | OD490 Well 2 (Caco-2 cell line; 25μM, third assay): 0.5810 | OD490 Well 3 (Caco-2 cell line; 25μM, third assay): 0.5439 | OD490 Mean (Caco-2 cell line; 50μM, first assay): 0.4955 | OD490 Well 1 (Caco-2 cell line; 50μM, first assay): 0.4127 | OD490 Well 2 (Caco-2 cell line; 50μM, first assay): 0.5627 | OD490 Well 3 (Caco-2 cell line; 50μM, first assay): 0.5110 | OD490 Mean (Caco-2 cell line; 50μM, second assay): 0.5572 | OD490 Well 1 (Caco-2 cell line; 50μM, second assay): 0.594 | OD490 Well 2 (Caco-2 cell line; 50μM, second assay): 0.5177 | OD490 Well 3 (Caco-2 cell line; 50μM, second assay): 0.5598 | OD490 Mean (Caco-2 cell line; 50μM, third assay): 0.5174 | OD490 Well 1 (Caco-2 cell line; 50μM, third assay): 0.5287 | OD490 Well 2 (Caco-2 cell line; 50μM, third assay): 0.5021 | OD490 Well 3 (Caco-2 cell line; 50μM, third assay): 0.5214 | OD490 Mean (Caco-2 cell line; 100μM, first assay): 0.4461 | OD490 Well 1 (Caco-2 cell line; 100μM, first assay): 0.4497 | OD490 Well 2 (Caco-2 cell line; 100μM, first assay): 0.4701 | OD490 Well 3 (Caco-2 cell line; 100μM, first assay): 0.4184 | OD490 Mean (Caco-2 cell line; 100μM, second assay): 0.5109 | OD490 Well 1 (Caco-2 cell line; 100μM, second assay): 0.5213 | OD490 Well 2 (Caco-2 cell line; 100μM, second assay): 0.5306 | OD490 Well 3 (Caco-2 cell line; 100μM, second assay): 0.4809 | OD490 Mean (Caco-2 cell line; 100μM, third assay): 0.4670 | OD490 Well 1 (Caco-2 cell line; 100μM, third assay): 0.4321 | OD490 Well 2 (Caco-2 cell line; 100μM, third assay): 0.4767 | OD490 Well 3 (Caco-2 cell line; 100μM, third assay): 0.4922 | IC50 (Caco-2 cell line; Homo sapiens, Caco-2, MTS assay, 24 h exposure): 112 µM

— publication PMC8037182, “Solvothermal Synthesis of Multiple Dihydropyrimidinones at a Time as Inhibitors of Eg5” (Molecules, 2021)
